Where two headings read alike, the source gives them in different places.
Key:
eye of a -2.00 D myope = assay: Spherical aberration of combined spectacle lens and eye system after Atropine-induced pupil increase; type: in vivo; conditions: pupillary diameter increased from about 3 mm to about 6 mm with use of Atropine
Text: FIG. 1A illustrates a schematic plot of pupil diameters resulting from use of Atropine, a widely used muscarinic receptor antagonist and a pharmaceutical agent for myopia therapy. […] Considering FIG. 1A, it is observed that use of 0.01% Atropine which to date is the lowest concentration used for treatment of myopia in individuals, increases the photopic pupillary diameter by approximately 1 mm. Increasing the concentration to anywhere from 0.025% to 0.1% Atropine, increases the photopic pupil size from about 2 mm to about 3 mm. With the highest concentration of 0.5% Atropine, the increase in photopic pupil size was largest and at about 3 mm. An increase in pupil size increases aberrations of the eye. […] FIG. 1B illustrates the increase in higher order aberrations from 3rd to 6th order as determined by aberrometry for the myopic eye of an individual who has a distance refractive error of approximately −2.00 D. It is observed that there is a significant increase in aberrations with a larger pupil. An increase in the pupil size may result in a functional decrement in visual performance and one or more unwanted effects such as poorer visual performance, reduced contrast, blurred vision, increased glare and increased photophobia (sensitivity to light). […]

[1] = test system: myopic children aged 8-10 years; conditions: cited from earlier work
[2] = test system: eye of individuals treated for myopia; conditions: cited from earlier work
children aged 6-12 years = conditions: concentrations greater than 0.1% Atropine; cited from earlier work
myopia progression = conditions: Atropine eye drops 0.01% to 1.0%; cited from earlier work

CN1[C@@H]2CC[C@H]1C[C@@H](OC(=O)C(CO)c1ccccc1)C2 (some centres unmarked) [Atropine]
effective increase of spherical aberration of combined spectacle lens and eye system (eye of a -2.00 D myope): about +0.50 D
request photochromic progressive lenses, % of the time ([1]; atropine 0.01%): 6%
request photochromic progressive lenses, % of the time ([1]; atropine 0.1%): 61%
request photochromic progressive lenses, % of the time ([1]; atropine 0.5%): 70%
increase in photopic pupillary diameter ([2]; 0.01% Atropine): approximately 1 mm
increase in photopic pupil size ([2]; 0.5% Atropine (highest concentration)): about 3 mm
reduction in amplitude of accommodation (children aged 6-12 years): more than half
efficacy in slowing myopia, concentration dependent response (myopia progression): the higher the concentration, the greater the efficacy
